This is an account of results in PubChem BioAssay (NCI).

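Exposure lasted 48 hours, with cells grown in 96-well plates and compounds tested at five concentrations. The concentration for full growth arrest is given as TGI.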 Where only a bound is given, the exact number is not on record here.

Test systems include M14 melanoma; DU-145 prostate; MDA-N; IGROV1 ovarian; HCT-116 colon; HL-60(TB) leukemia; SK-MEL-28 melanoma; CCRF-CEM leukemia; NCI-H23 lung; NCI-H226 lung.
Test in all cases: growth of human tumour cells (NCI), 48 h

`C[C@@]12C[C@@H](c3ccccc3O1)N1CCCSC1=N2`: the TGI with M14 melanoma, in the assay with DU-145 prostate, in the assay on MDA-N, with IGROV1 ovarian, with HCT-116 colon and with HL-60(TB) leukemia was above 100 µM each time. Further, the TGI in the assay with SK-MEL-28 melanoma, in the assay with CCRF-CEM leukemia, in the assay on NCI-H23 lung and in the assay on NCI-H226 lung was above 100 µM throughout.
On to `O=C(O)c1ccccc1/C=N\N(CCO)C1=NCCN1`, for which the TGI in the assay on M14 melanoma, with DU-145 prostate, with MDA-N, in the assay on IGROV1 ovarian, in the assay on HCT-116 colon and in the assay on HL-60(TB) leukemia was above 100 µM in each case. In addition, the TGI in the assay with SK-MEL-28 melanoma, in the assay with CCRF-CEM leukemia, in the assay on NCI-H23 lung and in the assay on NCI-H226 lung was above 100 µM throughout.
With `Clc1ccc2c(c1)CC1C[N+]3=C(CCCCC3)C1=C2` (stereo not given), the TGI with M14 melanoma, with DU-145 prostate, with MDA-N, with IGROV1 ovarian, in the assay on HCT-116 colon and with HL-60(TB) leukemia was above 100 µM in each case. The TGI in the assay with SK-MEL-28 melanoma, in the assay with CCRF-CEM leukemia, in the assay on NCI-H23 lung and in the assay on NCI-H226 lung was above 100 µM each time.
In the case of `COc1ccc2nc3c([N+](=O)[O-])ccc4c3c(c2c1)N=CN4CCN(C)C`, the TGI was 18.7 µM with M14 melanoma; 15.8 µM with DU-145 prostate; 16.9 µM in the assay with MDA-N; 13.2 µM with IGROV1 ovarian; 13.6 µM in the assay on HCT-116 colon; 0.616 µM in the assay with HL-60(TB) leukemia. Moreover, the TGI worked out at 39.5 µM with SK-MEL-28 melanoma, 9.76 µM in the assay with CCRF-CEM leukemia, 21.1 µM with NCI-H23 lung and 20.3 µM in the assay on NCI-H226 lung.
In the case of `CCOC(=O)NC(C(F)(F)F)(C(F)(F)F)P(=O)(OCC)OCC`, the TGI with M14 melanoma, in the assay with DU-145 prostate, in the assay on MDA-N, with IGROV1 ovarian, in the assay with HCT-116 colon and in the assay with HL-60(TB) leukemia was above 100 µM in each case. Also, the TGI with SK-MEL-28 melanoma, in the assay on CCRF-CEM leukemia, in the assay on NCI-H23 lung and in the assay on NCI-H226 lung was above 100 µM throughout.
For `CC1=C(N2CC2)C(=O)C(C)=C(N2CC2)C1=O`, the TGI in the assay on M14 melanoma is 1.25 µM; in the assay with DU-145 prostate it was 4.69 µM; in the assay on MDA-N, 2.9 µM; in the assay with IGROV1 ovarian, 1.31 µM; with HCT-116 colon it was 19.3 µM; in the assay with HL-60(TB) leukemia, 1.04 µM. Besides, the TGI came to 1.26 µM in the assay on SK-MEL-28 melanoma, 3.3 µM in the assay on CCRF-CEM leukemia, 0.19 µM with NCI-H23 lung and 1.18 µM in the assay on NCI-H226 lung.
As to `O=C(O)c1ccc(Nc2nc3ccc(C(F)(F)F)cc3nc2C(=O)O)cc1`, the TGI in the assay with M14 melanoma, with DU-145 prostate, in the assay on MDA-N, in the assay with IGROV1 ovarian, in the assay with HCT-116 colon and in the assay on HL-60(TB) leukemia was above 100 µM each time. The TGI with SK-MEL-28 melanoma, in the assay with CCRF-CEM leukemia, with NCI-H23 lung and in the assay with NCI-H226 lung was above 100 µM throughout.
For the compound `COC(=O)CCc1cc(OC)c2oc(-c3ccc(OC)c(OC)c3)c(CO)c2c1`, the TGI in the assay with M14 melanoma, with DU-145 prostate, in the assay on MDA-N, in the assay with IGROV1 ovarian, in the assay with HCT-116 colon and in the assay on HL-60(TB) leukemia was above 100 µM in each case. Besides, the TGI in the assay with SK-MEL-28 melanoma, in the assay with CCRF-CEM leukemia, in the assay on NCI-H23 lung and in the assay with NCI-H226 lung was above 100 µM in each case.
Regarding `Nc1n[nH]c(N)n1`, the TGI in the assay with M14 melanoma was above 10000 µM; with DU-145 prostate, above 10000 µM; in the assay with MDA-N, above 10000 µM; in the assay with IGROV1 ovarian, above 7740 µM; in the assay with HCT-116 colon, above 10000 µM; with HL-60(TB) leukemia it was 7060 µM. In addition, the TGI was above 10000 µM with SK-MEL-28 melanoma, above 9030 µM in the assay on CCRF-CEM leukemia, above 9700 µM with NCI-H23 lung and above 10000 µM in the assay on NCI-H226 lung.
Turning to `Cc1cc(S(=O)(=O)Nc2nnc3c(Cl)cc(C(F)(F)F)cn23)c(S)cc1Cl`, the TGI in the assay on M14 melanoma, in the assay with DU-145 prostate, in the assay with MDA-N, in the assay on IGROV1 ovarian, with HCT-116 colon and in the assay with HL-60(TB) leukemia was above 100 µM throughout. For the same compound, the TGI in the assay on SK-MEL-28 melanoma, with CCRF-CEM leukemia, in the assay with NCI-H23 lung and in the assay with NCI-H226 lung was above 100 µM in each case.
For `COC(=O)N1C2C(C[C@@]1(C)C(=O)OC)c1ccccc1N2S(=O)(=O)c1ccccc1` (stereo not given in full), the TGI with M14 melanoma, in the assay on DU-145 prostate, in the assay with MDA-N, with IGROV1 ovarian, in the assay on HCT-116 colon and in the assay with HL-60(TB) leukemia was above 100 µM throughout. Moreover, the TGI in the assay on SK-MEL-28 melanoma, in the assay on CCRF-CEM leukemia, in the assay on NCI-H23 lung and with NCI-H226 lung was above 100 µM each time.
In the case of `CSc1c(S(C)=O)c2ccccc2n1C` (stereo not given), the TGI with M14 melanoma, in the assay with DU-145 prostate, in the assay on MDA-N, with IGROV1 ovarian, in the assay with HCT-116 colon and in the assay with HL-60(TB) leukemia was above 100 µM each time. In addition, the TGI in the assay with SK-MEL-28 melanoma, in the assay on CCRF-CEM leukemia, in the assay with NCI-H23 lung and in the assay on NCI-H226 lung was above 100 µM in each case.
Turning to `O=C(N/N=C\c1ccc(Cl)cc1)Nc1cccc2ccccc12`, the TGI is above 100 µM in the assay with M14 melanoma; above 100 µM in the assay on DU-145 prostate; above 21.3 µM in the assay on MDA-N; above 25.8 µM in the assay with IGROV1 ovarian; above 23.2 µM in the assay with HCT-116 colon; 27.1 µM in the assay on HL-60(TB) leukemia. The TGI in the assay with SK-MEL-28 melanoma was above 100 µM; in the assay on CCRF-CEM leukemia, above 31.9 µM; with NCI-H23 lung it was 98.9 µM; in the assay with NCI-H226 lung, above 30 µM.
